Consider four compounds from patent publication US11491109B2, “Pharmaceutical compositions for basic or neutral, low molecular weight compounds” (Hoffmann-La Roche Inc., priority 2017, dated 2022).

In brackets after ≈: the same amount, converted by molar mass.

The nature of one data set: Equilibrium solubility in EPO-solutions, 96-well SORESOS assay. In kind it is physicochemical. The following applies: EPO 0.1%; vs adjusted solubility in water at pH 6.0. As for the experimental part: Polymer solutions were prepared by dissolving EPO (0.1%, 0.5%, 1%, 2%, 3%, 4%, 5% (w/w)) in deionized water and adjusting all solutions to pH 6.0 by hydrochloric acid and sodium hydroxide at 25° C. Solutions were checked carefully for absence of particles.
(§1) Solubility of compounds in EPO-solutions was determined by using a 96-well assay that was introduced to measure equilibrium solubility in parallel to a solid state analysis of the residual solid (SORESOS)^21 as described before.^22 In brief, APIs were dispensed using the powder-picking-method^23 in a 96-well flat bottom plate (Corning Inc., Durham, USA). Mixtures were agitated by head-over-head rotation for 48 h at room temperature after addition of stir bars and polymer solutions (150 μl). After mixing, the suspensions were carefully transferred into 96-well filter plates and the liquid and solid phase were separated by centrifugation. […] An isocratic flow (composition of the mobile phase is listed in Table 2) was applied for 0.3 min at a flow rate of 0.75 mL/min. […] Solid state analysis of residual solid was performed by X-ray powder diffraction (XRPD) using a STOE Stadi P Combi diffractometer with a primary Ge-monochromator (Cu Kα radiation), imaging plate position sensitive detector (IP-PSD), and a 96-well sample stage as described before.^21 The IP-PSD allowed simultaneous recording of the diffraction pattern on both sides of the primary beam which were summed up by the software STOE WinXPOW to reduce effects related to poor crystal orientation statistics. Samples were analyzed directly in the 96-well filter plate with an exposure time of 5 min per well.
as §1, with “After addition of stir bars and polymer solutions (150 μl), mixtures” for “Mixtures”, “temperature.” for “temperature after addition of stir bars and polymer solutions (150 μl).”, “7)” for “2)”
Consider `C(=C\c1ccccc1)/CN1CCN(C(c2ccccc2)c2ccccc2)CC1` [CNZ, Cinnarizine], for which the “Adjusted SE in EPO 0.1%” value is listed as 2.7 (2.7).
Turning to `O=c1[nH]c2ccccc2n1C1CCN(CCCC(c2ccc(F)cc2)c2ccc(F)cc2)CC1` [PMZ, Pimozide], the “Adjusted SE in EPO 0.1%” value is 2.0.

The data set is the same for the next values; noted with them: EPO 0.1%; vs measured solubility in water.
Consider `C(=C\c1ccccc1)/CN1CCN(C(c2ccccc2)c2ccccc2)CC1` [CNZ, Cinnarizine], for which the “Non-adjusted SE in EPO 0.1% (in brackets)” value is 2.7 (2.7).
For the compound `O=c1[nH]c2ccccc2n1C1CCN(CCCC(c2ccc(F)cc2)c2ccc(F)cc2)CC1` [PMZ, Pimozide], the “Non-adjusted SE in EPO 0.1% (in brackets)” value was determined as 12.8.

The data set is the same for the next values; noted with them: EPO 0.1-5%, 48 h, room temperature.
As to `CCOC(=O)C1=C(C)NC(C)=C(C(=O)OC)C1c1cccc(Cl)c1Cl` (centres unmarked) [FLP, felodipine], the “course of solubility with polymer concentration” value was “increase of solubility with polymer concentration up to 5% EPO”.
Take `O=c1[nH]c2ccccc2n1C1CCN(CCCC(c2ccc(F)cc2)c2ccc(F)cc2)CC1` [PMZ, Pimozide]: the “course of solubility with polymer concentration” value is “increase of solubility with polymer concentration up to 5% EPO”.

The data set is the same for the next values; noted with them: EPO 0.5%; vs adjusted solubility in water at pH 6.0.
`C(=C\c1ccccc1)/CN1CCN(C(c2ccccc2)c2ccccc2)CC1` [CNZ, Cinnarizine]: the “Adjusted SE in EPO 0.5%” value is given as 10.3 (10.3).
Regarding `O=c1[nH]c2ccccc2n1C1CCN(CCCC(c2ccc(F)cc2)c2ccc(F)cc2)CC1` [PMZ, Pimozide], the “Adjusted SE in EPO 0.5%” value was determined as 5.4.

The same data set, now with this note: EPO 0.5%; vs measured solubility in water.
As for `C(=C\c1ccccc1)/CN1CCN(C(c2ccccc2)c2ccccc2)CC1` [CNZ, Cinnarizine], the “Non-adjusted SE in EPO 0.5% (in brackets)” value is on record as 10.3 (10.3).
Turning to `O=c1[nH]c2ccccc2n1C1CCN(CCCC(c2ccc(F)cc2)c2ccc(F)cc2)CC1` [PMZ, Pimozide], the “Non-adjusted SE in EPO 0.5% (in brackets)” value worked out at 35.3.

Staying with this data set, now noted: EPO 1.0%; vs adjusted solubility in water at pH 6.0.
As to `C(=C\c1ccccc1)/CN1CCN(C(c2ccccc2)c2ccccc2)CC1` [CNZ, Cinnarizine], the “Adjusted SE in EPO 1.0%” value was 15.3 (15.3).
On the same count and under the same terms, to `O=c1[nH]c2ccccc2n1C1CCN(CCCC(c2ccc(F)cc2)c2ccc(F)cc2)CC1` [PMZ, Pimozide] belongs 5.0.

The same data set, now with this note: EPO 1.0%; vs measured solubility in water.
Regarding `C(=C\c1ccccc1)/CN1CCN(C(c2ccccc2)c2ccccc2)CC1` [CNZ, Cinnarizine], the “Non-adjusted SE in EPO 1.0% (in brackets)” value is given as 15.3 (15.3).
Same read-out and setting: under `O=c1[nH]c2ccccc2n1C1CCN(CCCC(c2ccc(F)cc2)c2ccc(F)cc2)CC1` [PMZ, Pimozide] stands 32.3.

The data set is the same for the next values; noted with them: EPO 2.0%; vs adjusted solubility in water at pH 6.0.
With `C(=C\c1ccccc1)/CN1CCN(C(c2ccccc2)c2ccccc2)CC1` [CNZ, Cinnarizine], the “Adjusted SE in EPO 2.0%” value is listed as 29.3 (29.3).
For the compound `O=c1[nH]c2ccccc2n1C1CCN(CCCC(c2ccc(F)cc2)c2ccc(F)cc2)CC1` [PMZ, Pimozide], the “Adjusted SE in EPO 2.0%” value was determined as 6.9.

The same data set, now with this note: EPO 2.0%; vs measured solubility in water.
As to `C(=C\c1ccccc1)/CN1CCN(C(c2ccccc2)c2ccccc2)CC1` [CNZ, Cinnarizine], the “Non-adjusted SE in EPO 2.0% (in brackets)” value is 29.3 (29.3).
For the compound `O=c1[nH]c2ccccc2n1C1CCN(CCCC(c2ccc(F)cc2)c2ccc(F)cc2)CC1` [PMZ, Pimozide], the “Non-adjusted SE in EPO 2.0% (in brackets)” value came out at 45.0.

Staying with this data set, now noted: EPO 3.0%; vs adjusted solubility in water at pH 6.0.
Regarding `C(=C\c1ccccc1)/CN1CCN(C(c2ccccc2)c2ccccc2)CC1` [CNZ, Cinnarizine], the “Adjusted SE in EPO 3.0%” value is recorded as 37.3 (37.3).
For the compound `O=c1[nH]c2ccccc2n1C1CCN(CCCC(c2ccc(F)cc2)c2ccc(F)cc2)CC1` [PMZ, Pimozide], the “Adjusted SE in EPO 3.0%” value is listed as 8.5.

The data set is the same for the next values; noted with them: EPO 3.0%; vs measured solubility in water.
On to `C(=C\c1ccccc1)/CN1CCN(C(c2ccccc2)c2ccccc2)CC1` [CNZ, Cinnarizine], for which the “Non-adjusted SE in EPO 3.0% (in brackets)” value was 37.3 (37.3).
For the compound `O=c1[nH]c2ccccc2n1C1CCN(CCCC(c2ccc(F)cc2)c2ccc(F)cc2)CC1` [PMZ, Pimozide], the “Non-adjusted SE in EPO 3.0% (in brackets)” value is listed as 55.2.

The same data set, now with this note: EPO 4.0%; vs adjusted solubility in water at pH 6.0.
Consider `C(=C\c1ccccc1)/CN1CCN(C(c2ccccc2)c2ccccc2)CC1` [CNZ, Cinnarizine], for which the “Adjusted SE in EPO 4.0%” value is recorded as 39.0 (39.0).
Regarding `O=c1[nH]c2ccccc2n1C1CCN(CCCC(c2ccc(F)cc2)c2ccc(F)cc2)CC1` [PMZ, Pimozide], the “Adjusted SE in EPO 4.0%” value is given as 9.3.

Still in this data set, the particulars now being: EPO 4.0%; vs measured solubility in water.
Take `C(=C\c1ccccc1)/CN1CCN(C(c2ccccc2)c2ccccc2)CC1` [CNZ, Cinnarizine]: the “Non-adjusted SE in EPO 4.0% (in brackets)” value is reported as 39.0 (39.0).
Same read-out and setting: under `O=c1[nH]c2ccccc2n1C1CCN(CCCC(c2ccc(F)cc2)c2ccc(F)cc2)CC1` [PMZ, Pimozide] stands 60.2.

The same data set, now with this note: EPO 5.0%; vs adjusted solubility in water at pH 6.0.
With `C(=C\c1ccccc1)/CN1CCN(C(c2ccccc2)c2ccccc2)CC1` [CNZ, Cinnarizine], the “Adjusted SE in EPO 5.0%” value was 37.0 (37.0).
On to `O=c1[nH]c2ccccc2n1C1CCN(CCCC(c2ccc(F)cc2)c2ccc(F)cc2)CC1` [PMZ, Pimozide], for which the “Adjusted SE in EPO 5.0%” value came to 9.8.

The same data set, now with this note: EPO 5.0%; vs measured solubility in water.
Take `C(=C\c1ccccc1)/CN1CCN(C(c2ccccc2)c2ccccc2)CC1` [CNZ, Cinnarizine]: the “Non-adjusted SE in EPO 5.0% (in brackets)” value is 37.0 (37.0).
For the compound `O=c1[nH]c2ccccc2n1C1CCN(CCCC(c2ccc(F)cc2)c2ccc(F)cc2)CC1` [PMZ, Pimozide], the “Non-adjusted SE in EPO 5.0% (in brackets)” value stood at 63.8.

Another data set is described as follows: pKa via photometric titration (Roche internal data). It counts as physicochemical. The following applies: measured via photometric titration; basic model compounds.
What is called pKa is the negative logarithm of the acid dissociation constant. Read a low pKa as a group that gives up its proton readily. Consider `C(=C\c1ccccc1)/CN1CCN(C(c2ccccc2)c2ccccc2)CC1` [CNZ, Cinnarizine], for which the pKa is 7.8.
In turn, `O=c1[nH]c2ccccc2n1C1CCN(CCCC(c2ccc(F)cc2)c2ccc(F)cc2)CC1` [PMZ, Pimozide] returned a pKa of 8.6.
`CC/C(=C(\c1ccccc1)c1ccc(OCCN(C)C)cc1)c1ccccc1` [TMX, tamoxifen] came in with a pKa of 9.7.

The next data set in a line: Drug solubility in water (aqueous solubility). In kind it is physicochemical. Particulars: thermodynamic from solid, 24 h incubation, pH not adjusted, read-out: Solubility in water (standard deviation, n = 3).
As a reminder, the solubility is how much of the substance goes into solution per volume. In the case of `C(=C\c1ccccc1)/CN1CCN(C(c2ccccc2)c2ccccc2)CC1` [CNZ, Cinnarizine], the solubility at 24 h came to 1 µg/mL (≈ 2.71 µM).
Take `O=c1[nH]c2ccccc2n1C1CCN(CCCC(c2ccc(F)cc2)c2ccc(F)cc2)CC1` [PMZ, Pimozide]: the solubility at 24 h came to 2 µg/mL (≈ 4.33 µM).

Still in this data set, the particulars now being: thermodynamic from solid, extrapolated to pH 6.0 by Henderson-Hasselbalch equation, read-out: Adjusted solubility at pH 6.0.
On to `C(=C\c1ccccc1)/CN1CCN(C(c2ccccc2)c2ccccc2)CC1` [CNZ, Cinnarizine], for which the solubility at 24 h was 1 µg/mL (≈ 2.71 µM).
With `O=c1[nH]c2ccccc2n1C1CCN(CCCC(c2ccc(F)cc2)c2ccc(F)cc2)CC1` [PMZ, Pimozide], the solubility at 24 h is 13 µg/mL (≈ 28.2 µM).

The same data set, now with this note: thermodynamic from solid, neutral model compounds, n = 3.
As for `CCOC(=O)C1=C(C)NC(C)=C(C(=O)OC)C1c1cccc(Cl)c1Cl` (centres unmarked) [FLP, felodipine], the solubility stood at 0.4 µg/mL (≈ 1.04 µM).
